Measured values reported in US20250235432A1, “METHODS OF TREATING CANCERS” (Foghorn Therapeutics Inc., priority 2018, published 2025).

Tests used:
Type in all cases: cell-based
[1] = tested on: uveal melanoma cell lines 92-1 or MP41; test: 3-day growth inhibition of uveal melanoma cell lines, comparison to clinical PKC and MEK inhibitors; settings: for onset of growth inhibition compared to the clinical PKC and MEK inhibitors: 92-1 or MP41; for growth inhibition of uveal melanoma cells compared to the clinical PKC and MEK inhibitors (LXS196, Selumetinib): 92-1 or MP41, 3 days, 0 to 10 micromolar
Protocol: Procedure: Uveal melanoma cell lines, 92-1 or MP41, were plated in 96 well plates in the presence of growth media (see Table 1). […] Cells were incubated at 37° C. for 3 days. After 3 days of treatment, cell growth was measured with Cell-titer glow (Promega), and luminescence was read on an Envision plate reader (Perkin Elmer).
Procedure: Uveal melanoma cell lines, 92-1 or MP41, were plated in 96 well plates in the presence of growth media (see Table 1). BAF ATPase inhibitor (compound 18), PKC inhibitor (LXS196; MedChemExpress), and MEK inhibitor (Selumetinib; Selleck Chemicals) were dissolved in DMSO and added to the cells in a concentration gradient from 0 to 10 micromolar at the time of plating. Cells were incubated at 37° C. for 3 days. After three days of treatment, cell growth was measured with Cell-titer glow (Promega), and luminescence was read on an Envision plate reader (Perkin Elmer).

[2] = tested on: parental MP41 and PKCi-resistant MP41 uveal melanoma cells; test: 7-day growth inhibition assay, parental and PKC inhibitor-resistant cells
Protocol: Procedure: Uveal melanoma cell lines (92-1, MP41, MP38, MP46), prostate cancer cell lines (LNCAP), lung cancer cell lines (NClH1299), and immortalized embryonic kidney lines (HEK293T) were plated into 96 well plates with growth media (see Table 1). […] Cells were incubated at 37° C. for 3 days. After 3 days of treatment, the media was removed from the cells, and 30 microliters of TrypLE (Gibco) was added to cells for 10 minutes. Cells were detached from the plates and resuspended with the addition of 170 microliters of growth media. Cells from two DMSO-treated control wells were counted, and the initial number of cells plated at the start of the experiment, were re-plated into fresh-compound containing plates for an additional four days at 37° C. At day 7, cells were harvested as described above.
On day 3 and day 7, relative cell growth was measured by the addition of Cell-titer glo (Promega), and luminescence was measured on an Envision plate reader (Perkin Elmer).
Procedure: MP41 uveal melanoma cells were made resistant to the PKC inhibitor (LXS196; MedChemExpress), by long-term culture in growth media (see Table 1) containing increasing concentrations of the compound, up to 1 micromolar. After 3 months, sensitivity of the parental MP41 cells and the PKC inhibitor (PKCi)-resistant cells to the PKC inhibitor (LXS196) or the BRG1/BRM ATPase inhibitor (compound 18) was tested in a 7-day growth inhibition assay as described above in Example 2.

[3] = tested on: uveal melanoma cell lines (92-1, MP41, MP38, MP46); test: 3-day growth inhibition of uveal melanoma and non-small cell lung cancer cell lines; settings: 3 days, 0 to 10 micromolar, FIG. 5
Protocol: Procedure: Uveal melanoma cell lines (92-1, MP41, MP38, MP46) and non-small cell lung cancer cells (NCl-H1299) were plated into 96 well plates with growth media (see Table 1). BRG1/BRM ATPase inhibitor, compound 18, was dissolved in DMSO and added to the cells in a concentration gradient from 0 to 10 micromolar at the time of plating. Cells were incubated at 37° C. for 3 days. After three days of treatment, cell growth was measured with Cell-titer glow (Promega), and luminescence was read on an Envision plate reader (Perkin Elmer).

Question: How did the “onset of growth inhibition compared to the clinical PKC and MEK inhibitors” value [1] turn out when `CSCC[C@H](NC(=O)c1ccn(S(C)(=O)=O)c1)C(=O)Nc1nc(-c2cccc(-c3ccncc3)c2)cs1` [compound 18, (S)-1-(methylsulfonyl)-N-(4-(methylthio)-1-oxo-1-((4-(3-(pyridin-4-yl)phenyl)thiazol-2-yl)amino)butan-2-yl)-1H-pyrrole-3-carboxamide] was run?
Answer: faster onset of growth inhibition

Question: What about the “growth inhibition of uveal melanoma cells compared to the clinical PKC and MEK inhibitors (LXS196, Selumetinib)” value [1] of the same compound?
Answer: more potent effects on growth inhibition

Question: And the “sensitivity of PKCi-resistant cells relative to parental MP41 cells” value ([2]; 7-day assay, FIG. 7B)?
Answer: more sensitive

Question: And the “growth inhibition of both the PKCi-resistant and parental cell lines” value ([2]; MP41, 7-day assay, FIG. 7B)?
Answer: strong growth inhibition

Question: What about the “growth inhibition in the uveal melanoma cell lines” value [3] of the same compound?
Answer: potent growth inhibition

Question: `CC1(N)CCN(c2cccnc2NC(=O)c2nc(-c3ncccc3C(F)(F)F)cnc2N)CC1` [LXS196, reference compound] was tested. Which “tolerance of PKCi-resistant cells relative to the parental MP41 cell line” value ([2]; 7-day assay, FIG. 7A) did it give?
Answer: could tolerate growth at higher concentrations

Question: Which results are given for `CSCC[C@H](NC(=O)c1ccc(N)cc1)C(=O)Nc1nc(-c2cccc(-c3ccncc3)c2)cs1` [compound 17, 4-amino-N-[(1S)-3-methylsulfanyl-1-[[4-[3-(4-pyridyl)phenyl]thiazol-2-yl]carbamoyl]propyl]benzamide]?
Answer: onset of growth inhibition compared to the clinical PKC and MEK inhibitors [1]: faster onset of inhibition; growth inhibition of uveal melanoma cells compared to the clinical PKC and MEK inhibitors (LXS196, Selumetinib) [1]: comparable growth inhibition
